Target: T1, Tyrosine-protein phosphatase non-receptor type 1 (Homo sapiens, UniProt P18031)
T1 sequence (P18031 whole entry): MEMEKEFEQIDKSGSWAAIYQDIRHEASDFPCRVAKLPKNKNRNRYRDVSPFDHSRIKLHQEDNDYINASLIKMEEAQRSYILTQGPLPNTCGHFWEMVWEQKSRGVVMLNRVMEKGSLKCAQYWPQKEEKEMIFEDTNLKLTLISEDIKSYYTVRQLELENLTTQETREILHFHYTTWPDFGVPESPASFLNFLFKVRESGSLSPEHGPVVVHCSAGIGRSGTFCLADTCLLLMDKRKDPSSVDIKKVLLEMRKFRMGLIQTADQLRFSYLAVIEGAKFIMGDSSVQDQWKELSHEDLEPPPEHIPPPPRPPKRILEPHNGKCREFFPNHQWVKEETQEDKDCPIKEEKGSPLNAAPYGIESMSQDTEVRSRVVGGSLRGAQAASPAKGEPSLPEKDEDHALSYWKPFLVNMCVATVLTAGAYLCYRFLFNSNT
Test: Inhibition of protein tyrosine phosphatase 1B

Row | Structure (SMILES) | IC50 [µM]
1 | BrCc1cc(Br)c2cc(NBr)c(Br)c(Br)c2c1 | 185
2 | BrCc1cc2cc(Br)c(NBr)cc2c(Br)c1Br | 127

These reach a lower IC50. Values come first.

Row | IC50 [µM] | Structure (SMILES)
3 | 5.78 | Cc1cc(C)c(Oc2cc(Br)cc(Br)c2Br)c(Br)c1
4 | 118 | BrCc1cc(Br)c2cc(NBr)c(Br)cc2c1Br
5 | 3.82 | COc1cc(C(=O)c2c(Br)c(Br)c(OC)c(OC)c2Br)c(Br)c(Br)c1OC

From ChEMBL document CHEMBL1287683, “Highly brominated metabolites from marine red alga Laurencia similis inhibit protein tyrosine phosphatase 1B” (Bioorg Med Chem Lett, 2010)
